The series in a line: Melatonin time release profile (dissolution testing) of bilayer caplet. It counts as physicochemical. To be noted: for Melatonin Released (%): bilayer caplet. The source says:
Initially, a small portion of melatonin was being added to the immediate release layer. […] The premix blends were modified by relocating all melatonin ingredients to the time release layer. During initial trials, modifications were also made to excipients for cost purposes. […] The final bilayer caplet is coated, making it easier to swallow, with peppermint oil for odour masking. With these optimum parameters assessed for each layer, the tablet satisfies all of the requisite physical and chemical parameters to deliver the ingredients as intended.

Turning to `COc1ccc2[nH]cc(CCNC(C)=O)c2c1` [Melatonin], the “Melatonin Released (%)” value reads like this: (hardness 28 kp, time 15 minutes) 20%; (hardness 28 kp, time 60 minutes) 57%; (hardness 28 kp, time 360 minutes) 99%; (hardness 30 kp, time 15 minutes) 18%; (hardness 30 kp, time 60 minutes) 52%; (hardness 30 kp, time 360 minutes) 98%. In addition, the “melatonin release in dissolution testing” value (initial trial formulation with a small portion of melatonin in the immediate release layer) is on record as “released too quickly”.

The values above are taken from patent US10568856B2, “Composition for improved sleep” (Jamieson Laboratories, Ltd., priority 2015, dated 2020).
